Assay results reported in patent publication US20160077081A1, “METHOD FOR A CELL-BASED DRUG SCREENING ASSAY AND THE USE THEREOF” (QGEL SA, priority 2013, published 2016).

What was measured:
[1] = test system: Colon cancer HCT 116 cells; experiment: Image-based analysis of cancer cell spheroid size in a three-dimensional matrix after early-/late-stage treatment; conditions: early-stage treatment, IC50 and 1 mM
Protocol: In FIG. 3B an image-based analysis quantifying the distribution of diameter sizes of cell colonies, specifically cancer spheroids measured immediately after “early-” and “late-stage” treatment is shown as an example of a selection of drugs from FIG. 3 A at a drug concentration of 10 μM. Filled curves correspond to “hits” and unfilled curves are “no Hits” as determined using metabolic readouts at the ends of “early stage” and “late-stage” (Positive control: Cells treated with copper sulphate; negative control; Cells treated with DMSO).
In FIG. 4 the determination of the half maximal inhibitory concentration (IC50) as an Alamar Blue® readout of selected “Hits” in FIG. 2, example 5-Fluorouracil (5-FU), on colonies of Colon cancer HCT 116 cells is shown. The readout was performed immediately after “early-” and “late-stage” treatments of cells in a three-dimensional matrix. […] The IC50 curves obtained with two-dimensional reference assays are often similar to “early-stage” treatment conditions of the present invention (three-dimensional). This is also shown in the drug screening correlation of most “Hits” observed with the two assay methods in FIG. 3 A (upper panel). In FIG. 4 B an image-based analysis of cancer cell spheroids grown in a three-dimensional matrix after “early-” and “late-stage” treatment at selected drug concentrations, IC50 and 1 mM, are shown.

[2] = test system: Colon cancer HCT 116 cells; experiment: Alamar Blue metabolic readout on colonies of HCT 116 cells in a three-dimensional matrix, early-/late-stage treatment schedule; assay type: cell-based; conditions: for Hit in drug screening (metabolic readout, Alamar Blue): 10 μM
Protocol: An example is given comprising an “early-” and a “late-stage” drug treatment for cells grown in three-dimensional matrices. Conditions of different cancer stages are identified, derived from profiling assays, as in FIG. 1, and schedules for drug screening are determined accordingly. Here, different cancer stages for cells cultured in three-dimensional matrices are determined as “early-” and “late-stage” cancer treatment.
The “early-stage” comprises two time points for readout. The first point of time at day seven is at the end of the drug treatment, whereas the second point in time at day eleven follows a drug-free recovery phase. The “late-stage” comprises two time points for readout. The first point in time at day seventeen is at the end of a second (independent from “early-stage”) drug treatment phase. The second point in time at day twenty-one follows a drug-free recovery phase. Measurements at additional points in time can be performed before the start of treatment and/or after different drug-free recovery phases.
In contrary, the “late-stage” illustrates existence of larger spheroids with a diameter of 155 μm, low cell proliferation (shown in FIG. 9), and presence of hypoxic condition (FIG. 1C). In both cases, the readouts are performed immediately after treatment end to test immediate drug efficacy, and after a four-day drug-free period to test recurrence of “mini-tumour” growth and/or retarded drug effects as the case observed with Gemcitabine (FIG. 10).
As an example for “Hit” generation a selection of drugs from a commercially available drug library (Prestwick) is used. In A) the effect of sixty drugs on cancer cells measured by metabolic readout (Alamar Blue®) is shown. […]
In FIG. 4 the determination of the half maximal inhibitory concentration (IC50) as an Alamar Blue® readout of selected “Hits” in FIG. 2, example 5-Fluorouracil (5-FU), on colonies of Colon cancer HCT 116 cells is shown. The readout was performed immediately after “early-” and “late-stage” treatments of cells in a three-dimensional matrix. […]

[3] = test system: Pancreatic Panc-1 cancer cells; experiment: Alamar Blue readout on Panc-1 cells in three-dimensional matrices, late-stage treatment with or without drug-free recovery; assay type: cell-based
Source text: The “early-stage” comprises two time points for readout. The first point of time at day seven is at the end of the drug treatment, whereas the second point in time at day eleven follows a drug-free recovery phase. The “late-stage” comprises two time points for readout. The first point in time at day seventeen is at the end of a second (independent from “early-stage”) drug treatment phase. The second point in time at day twenty-one follows a drug-free recovery phase. Measurements at additional points in time can be performed before the start of treatment and/or after different drug-free recovery phases. […] The dose-dependant efficacy profiles for “late-stage” treatment with Gemcitabine on pancreatic cancer cells culture in three-dimensional matrices were measured according to Alamar Blue® readout before and after the drug-free recovery period of four to seven, days.

[4] = test system: Pancreatic Panc-1 cancer cells; experiment: Two-dimensional reference assay on pancreatic cancer cells; assay type: cell-based
Protocol: For reference two-dimensional assays, cells are normally tested with drugs within the logarithmic proliferations phase between day one to four (FIG. 9). […] The dose-dependant efficacy profiles for “late-stage” treatment with Gemcitabine on pancreatic cancer cells culture in three-dimensional matrices were measured according to Alamar Blue® readout before and after the drug-free recovery period of four to seven, days.

Structure (SMILES) | Inhibition of spheroid growth [1] | Hit in drug screening (metabolic readout, Alamar Blue) ([2]; triplicate, selected Hit of the screening campaign, stage not stated) | Hit in drug screening (metabolic readout, Alamar Blue) ([2]; late-stage treatment, three-dimensional matrix) | Potency (IC50 shift) from early to late treatment ([2]; late-stage versus early-stage treatment, readout immediately after treatment, three-dimensional matrix) | Cell growth inhibition (dose-dependent efficacy, Alamar Blue) ([3]; measured after drug-free recovery period of four to seven days) | Activity (dose-dependent efficacy, Alamar Blue) ([3]; measured immediately after the treatment) | Activity (dose-dependent efficacy) [4]
O=c1[nH]cc(F)c(=O)[nH]1 [5-FU, 5-Fluorouracil] | strong inhibition | Hits | no Hit | less potent |  |  | 
Nc1ccn([C@@H]2O[C@H](CO)[C@@H](O)C2(F)F)c(=O)n1 [Gemcitabine] |  |  |  |  | potent cell growth inhibitor | not shown to be active | not shown to be active
